Assays:
human LTA4 hydrolase = target: T1, human LTA4 hydrolase (Homo sapiens, UniProt P09960); test: LTA4H enzyme assay (cleavage of Arg-AMC, fluorescence); type: biochemical; details: LTA4H enzyme 1 nM, Arg-AMC substrate 50 μM, room temperature 1 h
T1 sequence (P09960 1-611): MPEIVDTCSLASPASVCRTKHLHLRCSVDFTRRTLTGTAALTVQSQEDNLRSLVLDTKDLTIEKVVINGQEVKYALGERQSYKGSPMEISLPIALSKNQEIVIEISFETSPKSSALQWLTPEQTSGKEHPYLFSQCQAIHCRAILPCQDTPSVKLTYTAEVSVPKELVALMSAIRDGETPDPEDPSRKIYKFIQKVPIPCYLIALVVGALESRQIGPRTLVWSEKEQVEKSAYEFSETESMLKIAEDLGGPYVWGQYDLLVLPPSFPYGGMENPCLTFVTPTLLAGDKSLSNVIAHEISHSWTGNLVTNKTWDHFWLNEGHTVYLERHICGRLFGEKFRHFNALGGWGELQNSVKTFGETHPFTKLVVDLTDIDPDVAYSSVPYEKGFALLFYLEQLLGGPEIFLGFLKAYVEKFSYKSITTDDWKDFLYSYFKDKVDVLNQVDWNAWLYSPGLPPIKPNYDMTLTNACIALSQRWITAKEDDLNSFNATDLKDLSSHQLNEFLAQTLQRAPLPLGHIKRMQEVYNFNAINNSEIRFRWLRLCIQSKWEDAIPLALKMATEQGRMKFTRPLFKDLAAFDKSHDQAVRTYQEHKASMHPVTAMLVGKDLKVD
Protocol: Compounds are assessed for the ability to interact with human LTA4 hydrolase in an enzymatic assay that measures the ability of the enzyme to cleave the peptide bond of arginyl-aminomethylcoumarin (Arg-AMC). LTA4H Enzyme (1 nM final), Arg-AMC substrate (50 μM final), and compound are combined in a reaction buffer (50 mM Tris-HCl (pH 7.5), 100 mM KCl, 0.5% bovine serum albumin) at room temperature for 1 h. The formation of product is assessed by measuring the fluorescence of aminomethylcoumarin product (excitation wavelength 380 nm/emission wavelength 460 nm).

[1] = test system: LTB4 production in human whole blood; test: LTB4 production inhibition assay in human whole blood (calcimycin-stimulated); type: cell-based; details: heparinized human whole blood, 15 min 37° C., calcimycin 20 μM 30 min, plasma LTB4 by HTRF
Protocol: Compounds of the invention are additionally tested in a human whole blood assay to determine their ability to inhibit the synthesis of LTB4 in a cellular system. Compounds are combined with heparinized human whole blood and incubated for 15 minutes at 37° C. Calcimycin (20 μM final, prepared in phosphate-buffered saline, pH 7.4) is then added and the mixture is incubated for another 30 minutes at 37° C. The samples are centrifuged for 5 min at low speed (1500×g) and the plasma layer is removed. Plasma LTB4 concentrations are then measured using an antibody-based homogenous time-resolved fluorescence method (CisBio, Bedford, Mass.).

Row | Structure (SMILES) | IC50 (human LTA4 hydrolase) | IC50 [1]
1 | c1cc(-c2ccc(Oc3ccc(OCc4cncs4)cc3)cc2)[nH]n1 [Example 70, 5-({4-[4-(1H-pyrazol-5-yl)phenoxy]phenoxy}methyl)-1,3-thiazole] | 0.0049 µM | 2.39 µM
2 | c1cc(-c2ccc(Oc3ccc(OCc4ccc5ncsc5c4)cc3)cc2)[nH]n1 [Example 71, 6-({4-[4-(1H-pyrazol-5-yl)phenoxy]phenoxy}methyl)-1,3-benzothiazole] | 0.0595 µM | ≥ 5 µM
3 | c1cc(-c2ccc(Oc3ccc(OCc4nccs4)cc3)cc2)[nH]n1 [Example 73, 2-({4-[4-(1H-pyrazol-5-yl)phenoxy]phenoxy}methyl)-1,3-thiazole] | 0.0104 µM | 4.1 µM
4 | Cc1ncoc1COc1ccc(Oc2ccc(-c3ccn[nH]3)cc2)cc1 [Example 74, 4-methyl-5-({4-[4-(1H-pyrazol-5-yl)phenoxy]phenoxy}methyl)-1,3-oxazole] | 0.0179 µM | 2.55 µM
5 | c1cnc(COc2ccc(Oc3ccc(-c4ccn[nH]4)cc3)cc2)nc1 [Example 75, 2-({4-[4-(1H-pyrazol-5-yl)phenoxy]phenoxy}methyl)pyrimidine] | 0.0066 µM | 2.84 µM
6 | c1cc(-c2ccc(Oc3ccc(OCc4ccc5nccn5c4)cc3)cc2)[nH]n1 [Example 76, 6-({4-[4-(1H-pyrazol-5-yl)phenoxy]phenoxy}methyl)imidazo[1,2-a]pyridine] | 0.0009 µM | 1.42 µM
7 | Cc1nnsc1COc1ccc(Oc2ccc(-c3ccn[nH]3)cc2)cc1 [Example 77, 4-Methyl-5-{4-[4-(2H-pyrazol-3-yl)-phenoxy]-phenoxymethyl}-[1,2,3]thiadiazole] | 0.001 µM | 0.492 µM
8 | c1cc(-c2ccc(Oc3ccc(OCc4cnco4)cc3)cc2)[nH]n1 [Example 78, 5-({4-[4-(1H-pyrazol-5-yl)phenoxy]phenoxy}methyl)-1,3-oxazole] | 0.0028 µM | 1.65 µM
9 | CC(COc1ccc(Oc2ccc(-c3ccn[nH]3)cc2)cc1)Cn1cccn1 (stereo not shown) [Example 79, 1-(2-methyl-3-{4-[4-(1H-pyrazol-5-yl)phenoxy]phenoxy}propyl)-1H-pyrazole] | 0.0027 µM | 2.11 µM
10 | c1cnn(-c2ccc(COc3ccc(Oc4ccc(-c5ccn[nH]5)cc4)cc3)cn2)c1 [Example 80, 2-(1H-pyrazol-1-yl)-5-({4-[4-(1H-pyrazol-5-yl)phenoxy]phenoxy}methyl)pyridine] | 0.0019 µM | 1.65 µM
11 | c1cc(-c2ccc(Oc3ccc(OCc4ccc5[nH]cnc5c4)cc3)cc2)[nH]n1 [Example 81, 5-({4-[4-(1H-pyrazol-5-yl)phenoxy]phenoxy}methyl)-1H-benzimidazole] | 0.0142 µM | ≥ 5 µM
12 | O=C1CC[C@@H](Oc2ccc(Oc3ccc(-c4ccn[nH]4)nc3)cc2)CN1 [Example 95, (5R)-5-(4-{[6-(1H-pyrazol-5-yl)pyridin-3-yl]oxy}phenoxy)piperidin-2-one] | 0.0016 µM | 0.367 µM

More lines, now with the values ahead:

Row | IC50 (human LTA4 hydrolase) | IC50 [1] | Structure (SMILES)
13 | 0.0061 µM | 2.55 µM | c1cc(-c2ccc(Oc3ccc(OCCc4cnoc4)cc3)cc2)[nH]n1 [Example 72, 4-(2-{4-[4-(1H-pyrazol-5-yl)phenoxy]phenoxy}ethyl)isoxazole]
14 | 0.0079 µM | 2.67 µM | c1cc(-c2ccc(Oc3ccc(OCCC4CCOCC4)cc3)cc2)[nH]n1 [Example 82, 5-(4-{4-[2-(tetrahydro-2H-pyran-4-yl)ethoxy]phenoxy}phenyl)-1H-pyrazole]
15 | 0.0029 µM | 1.74 µM | c1cc(-c2ccc(Oc3ccc(OCC4CCCOC4)cc3)cc2)[nH]n1 (stereo not shown) [Example 83, 5-{4-[4-(tetrahydro-2H-pyran-3-ylmethoxy)phenoxy]phenyl}-1H-pyrazole]
16 | 0.0046 µM | 1.46 µM | c1cc(-c2ccc(Oc3ccc(OCC4CCOCC4)cc3)cc2)[nH]n1 [Example 84, 5-{4-[4-(tetrahydro-2H-pyran-4-ylmethoxy)phenoxy]phenyl}-1H-pyrazole]
17 | 0.0008 µM | ≥ 5 µM | O=C1CC[C@H](COc2ccc(Oc3ccc(-c4ccn[nH]4)cc3)cc2)O1 [Example 85, (5R)-5-({4-[4-(1H-pyrazol-5-yl)phenoxy]phenoxy}methyl)dihydrofuran-2(3H)-one]
18 | 0.0008 µM | 4.5 µM | O=C1CC[C@@H](COc2ccc(Oc3ccc(-c4ccn[nH]4)cc3)cc2)O1 [Example 86, (5S)-5-({4-[4-(1H-pyrazol-5-yl)phenoxy]phenoxy}methyl)dihydrofuran-2(3H)-one]
19 | 0.0231 µM | ≥ 5 µM | O=C1OCC[C@@H]1Oc1ccc(Oc2ccc(-c3ccn[nH]3)cc2)cc1 [Example 87, (3S)-3-{4-[4-(1H-pyrazol-5-yl)phenoxy]phenoxy}dihydrofuran-2(3H)-one]
20 | 0.0164 µM | ≥ 5 µM | O=C1OCC[C@H]1Oc1ccc(Oc2ccc(-c3ccn[nH]3)cc2)cc1 [Example 88, (3R)-3-{4-[4-(1H-pyrazol-5-yl)phenoxy]phenoxy}dihydrofuran-2(3H)-one]
21 | 0.0048 µM | 1.77 µM | c1cc(-c2ccc(Oc3ccc(OC4CCOCC4)cc3)cc2)[nH]n1 [Example 89, 5-{4-[4-(tetrahydro-2H-pyran-4-yloxy)phenoxy]phenyl}-1H-pyrazole]
22 | 0.0024 µM | 0.777 µM | c1cc(-c2ccc(Oc3ccc(O[C@H]4CCOC4)cc3)cc2)[nH]n1 [Example 90, 5-(4-{4-[(3S)-tetrahydrofuran-3-yloxy]phenoxy}phenyl)-1H-pyrazole]
23 | 0.0107 µM | ≥ 5 µM | c1cc(-c2ccc(Oc3ccc(OCC4CCCCO4)cc3)cc2)[nH]n1 (stereo not shown) [Example 91, 5-{4-[4-(tetrahydro-2H-pyran-2-ylmethoxy)phenoxy]phenyl}-1H-pyrazole]
24 | 0.0033 µM | 1.2 µM | c1cc(-c2ccc(Oc3ccc(OCC4CCOC4)cc3)cc2)[nH]n1 (stereo not shown) [Example 92, 5-{4-[4-(tetrahydrofuran-3-ylmethoxy)phenoxy]phenyl}-1H-pyrazole]
25 | 0.0269 µM | 4.6 µM | c1cc(-c2ccc(Oc3ccc(OCCC4CCCCO4)cc3)cc2)[nH]n1 (stereo not shown) [Example 93, 5-(4-{4-[2-(tetrahydro-2H-pyran-2-yl)ethoxy]phenoxy]phenyl)-1H-pyrazole]
26 | 0.0141 µM | 2 µM | c1cc(-c2ccc(Oc3ccc(OC4CCCOC4)cc3)cc2)[nH]n1 (stereo not shown) [Example 94, 5-{4-[4-(tetrahydro-2H-pyran-3-yloxy)phenoxy]phenyl}-1H-pyrazole]

— patent US9139567B2, “Arylpyrazole ethers as inhibitors of leukotriene A4 hydrolase” (Boehringer Ingelheim International GmbH, priority 2011, dated 2015)
